Data set [1] has as its system HBV in HepG2 2.2.15 cells. The data set can be described thus: HepG2 2.2.15 cell-based HBV replication assay (HBV virus yield, extracellular HBV DNA by real-time PCR). Further details: species or system HBV wild-type strain ayw1. The settings on record: for pEC50 / EC90: Hepatitis B virus. Here is the method:
(§1) The HepG2 2.2.15 cell line is a stable human hepatoblastoma cell line that contains two copies of the HBV wild-type strain ayw1 genome and constitutively produces high levels of HBV. Cells were sub-cultured twice a week in Dulbecco's Modified Eagle's Medium (DMEM) supplemented with 10% FBS, 380 μg/mL G418, 2.0 mM L-Glutamine, 100 units/mL Penicillin, and 100 μg/mL Streptomycin. Total cell number and percent viability determinations were performed using a hemacytometer and trypan blue dye exclusion prior to each experiment set-up.
The primary anti-HBV assay was performed as previously described (Korba and Milman (1991) Antiviral Res. 15: 217-228; Korba and Gerin (1992) Antiviral Res. 19: 55-70) with modifications to use real-time PCR (TaqMan-based) to measure extracellular HBV DNA virion-associated released from HepG2 2.2.15 cells. Antiviral compounds blocking any late step of viral replication such as transcription, translation, pre-genome encapsidation, reverse transcription, particle assembly and release can be identified and characterized using this cell line. Briefly, HepG2 2.2.15 cells were seeded in 96-well microtiter plates at 1.5×10^4 cells/well in Dulbecco's Modified Eagle's Medium supplemented with 2% FBS, 2.0 mM L-Glutamine, 100 units/mL Penicillin, and 100 μg/mL Streptomycin. […] Three days post treatment with test article (DPV), cell culture medium was replaced with fresh medium containing the appropriately diluted test compounds. Six days following the initial administration of the test compounds, the cell culture supernatant was collected, treated with pronase and then used in a real-time TaqMan-based PCR assay. The PCR-amplified HBV DNA was detected by measuring fluorescent signal resulting from the exonucleolytic degradation of a quenched fluorescent probe molecule that hybridizes to the amplified HBV DNA.

The nature of data set [2]: Evaluation of cell viability (MTS) in HepG2 2.2.15 cells. The format is cell-based, human. Conditions: human. The method, then: as §1, with “set-up. Cell viability was always greater than 95% for experiment set-ups.” for “set-up.”
(§2) At experiment conclusion, MTS reagent (CellTiter®96 Reagent, Promega) reagent was added to culture wells (96 well microtiter plates) and permitted to incubate with cells for 2-4 hours at 37° C., 5% CO2. Each cell culture well was measured for MTS reagent reduction (color change, 490/650 nm) using a SpectraMax i3 plate reader (Molecular Devices).

Data set [3] relates to HepG2 2.2.15 cells. The data set is described as above. The format is cell-based, human. The settings on record: Table 3; HBV virus yield assay. Here is the method:
as §1, with “set-up. Cell viability was always greater than 95% for experiment set-ups.” for “set-up.”
as §2

The test system of data set [4] is HSV-1 Strain HF. The data set can be described thus: Antiviral activity against HSV-1 Strain HF in Vero cells. The format is cell-based.
Data set [5] in a line: Cytotoxicity (TC50) in Vero cells. The format is cell-based. The settings on record: African green monkey, Table 2.
Where [6] appears, read: HepG2 2.2.15, Table 1, HBV in HepG2 2.2.15 cells, read-out: EC50.
Setting [7] is: HepG2 2.2.15, Table 3, HBV virus yield assay, read-out: EC50.
The mark [8] stands for this setting: Table 1, HBV in HepG2 2.2.15 cells, read-out: EC90.
The mark [9] stands for this setting: Table 1, HBV in HepG2 2.2.15 cells.
Setting [10] is: HepG2 2.2.15, Table 3, HBV virus yield assay, read-out: EC90.
[11] abbreviates: HepG2 2.2.15 cells, Table 3, HBV virus yield assay.

pEC50, pIC50: −log10 of the molar value. Like-named read-outs stand apart in the source and are kept apart here.

Take `Nc1nc(Cl)nc2c1ccn2[C@@H]1O[C@H](CO)[C@@H](O)[C@@H]1F` [Compound 5, (2R,3R,4S,5R)-5-(4-amino-2-chloro-7H-pyrrolo[2,3-d]pyrimidin-7-yl)-4-fluoro-2-(hydroxymethyl)tetrahydrofuran-3-ol]: the figures for the pEC50 in data set [1] (setting [6]) and in data set [1] (setting [7]) were 7.15 and 7.22, respectively. In addition, the EC90 in data set [1] (setting [8]) worked out at 1280 nM. For the same compound, in data set [1] (setting [9]), the Activity entry was “Hi”. The “Selectivity Index (SI50) (CC50/EC50)” value in data set [1] (setting [9]) was over 167. Besides, the cytotoxic concentration (CC50) in data set [2] (Table 1, HepG2 2.2.15 cells) was over 10000 nM; in data set [3], over 10000 nM; in data set [5], over 10000 nM. In addition, the negative-log IC50 (pIC50) in data set [4] (Human alphaherpesvirus 1, Table 2) is 6.19. The “Selectivity Index (SI50) (TC50/IC50)” value in data set [4] (Table 2) is on record as over 15.4.

Consider `CCCCCCCCCCCC(=O)Nc1nc(Cl)nc2c1ccn2[C@@H]1O[C@H](CO)[C@@H](O)[C@@H]1F` [Compound 12a, N-(2-chloro-7-((2R,3S,4R,5R)-3-fluoro-4-hydroxy-5-(hydroxymethyl)tetrahydrofuran-2-yl)-7H-pyrrolo[2,3-d]pyrimidin-4-yl)dodecanamide], for which the pEC50 in data set [1] (setting [7]) is 7.10. Also, the EC90 in data set [1] (setting [10]) was determined as 950 nM. The CC50 in data set [2] (setting [11]) was over 10000 nM.

Consider `C[C@H](NP(=O)(OC[C@H]1O[C@@H](n2ccc3c(N)nc(Cl)nc32)C(F)C1O)Oc1ccccc1)C(=O)OCc1ccccc1` (single isomer, unassigned) [Compound 9c], for which, in data set [1] (HepG2 2.2.15), the pEC50 is 6.62 and the EC90 is over 10000 nM. In data set [2] (Table 3, HBV virus yield assay), this compound gave a CC50 of over 10000 nM.

As to `CCC(CC)COC(=O)[C@H](C)NP(=O)(OC[C@H]1O[C@@H](n2ccc3c(N)nc(Cl)nc32)[C@@H](F)[C@@H]1O)Oc1ccccc1` (stereo partly drawn) [Compound 9a, 2-ethylbutyl ((((2R,3R,4S,5R)-5-(4-amino-2-chloro-7H-pyrrolo[2,3-d]pyrimidin-7-yl)-4-fluoro-3-hydroxytetrahydrofuran-2-yl)methoxy)(phenoxy)phosphoryl)-L-alaninate], in data set [1] (HepG2 2.2.15), the negative-log EC50 (pEC50) is 6.80 and the 90% effect concentration (EC90) is 1580 nM. The same compound showed a 50% cytotoxic concentration (CC50) in data set [2] (Table 3, HBV virus yield assay) of over 10000 nM.

Turning to `CCOC(=O)[C@H](C)NP(=O)(OC[C@H]1O[C@@H](n2ccc3c(N)nc(Cl)nc32)[C@@H](F)[C@@H]1O)Oc1ccccc1` (mixture of isomers) [Compound 9e, ethyl ((((2R,3R,4S,5R)-5-(4-amino-2-chloro-7H-pyrrolo[2,3-d]pyrimidin-7-yl)-4-fluoro-3-hydroxytetrahydro-furan-2-yl)methoxy)-(phenoxy)phosphoryl)-L-alaninate], in data set [1] (HepG2 2.2.15), the negative logarithm of the EC50 (pEC50) was 6.85 and the concentration for an effect of 90% (EC90) was over 10000 nM. Also, the cytotoxic concentration (CC50) in data set [2] (Table 3, HBV virus yield assay) was over 10000 nM.

In data set [1] (HepG2 2.2.15), `COC(=O)[C@H](C)NP(=O)(OC[C@H]1O[C@@H](n2ccc3c(N)nc(Cl)nc32)[C@@H](F)[C@@H]1O)Oc1ccccc1` (single isomer, unassigned) [Compound 9f] showed a pEC50 of 6.62 and an EC90 of over 10000 nM. Also, the 50% cytotoxic concentration (CC50) in data set [2] (Table 3, HBV virus yield assay) was over 10000 nM.

In data set [1] (HepG2 2.2.15), `CC(C)OC(=O)[C@H](C)NP(=O)(OC[C@H]1O[C@@H](n2ccc3c(N)nc(Cl)nc32)[C@@H](F)[C@@H]1O)Oc1ccccc1` (mixture of isomers) [Compound 9b, isopropyl ((((2R,3R,4S,5R)-5-(4-amino-2-chloro-7H-pyrrolo[2,3-d]pyrimidin-7-yl)-4-fluoro-3-hydroxytetrahydrofuran-2-yl)methoxy)(phenoxy)phosphoryl)-L-alaninate] gave a pEC50 of 7.05 and an EC90 of 1050 nM. In data set [2] (Table 3, HBV virus yield assay), the CC50 was over 10000 nM.

With `CC(C)COC(=O)[C@H](C)NP(=O)(OC[C@H]1O[C@@H](n2ccc3c(N)nc(Cl)nc32)[C@@H](F)[C@@H]1O)Oc1ccccc1` (single isomer, unassigned) [Compound 9d], in data set [1] (HepG2 2.2.15), the negative logarithm of the EC50 (pEC50) was 6.52 and the EC90 was over 10000 nM. In data set [2] (Table 3, HBV virus yield assay), this compound returned a CC50 of over 10000 nM.

Regarding `Nc1nc2c(ncn2COCCO)c(=O)[nH]1` [Acyclovir, acyclovir, reference compound], in data set [4] (Table 2), the pIC50 was 4.94 and the “Selectivity Index (SI50) (TC50/IC50)” value is over 8.77. This compound also showed a CC50 in data set [5] of over 100000 nM.

In the case of `CCCCCCCCCCCCCCCCCC(=O)Nc1nc(Cl)nc2c1ccn2[C@@H]1O[C@H](CO)[C@@H](O)[C@@H]1F` [Compound 12c, N-(2-chloro-7-((2R,3S,4R,5R)-3-fluoro-4-hydroxy-5-(hydroxymethyl)tetrahydrofuran-2-yl)-7H-pyrrolo[2,3-d]pyrimidin-4-yl)stearamide], in data set [1] (setting [7]), the negative logarithm of the EC50 (pEC50) is 6.28. Also, the 90% effect concentration (EC90) in data set [1] (setting [10]) is over 10000 nM. The compound further gave a CC50 in data set [2] (setting [11]) of over 10000 nM.

In the case of `Nc1ccn([C@@H]2CS[C@H](CO)O2)c(=O)n1` [Compound 3TC, Lamivudine, reference compound], the negative logarithm of the EC50 (pEC50) in data set [1] (setting [6]) and in data set [1] (setting [7]) was 7.54 each time. In data set [1] (setting [8]), the EC90 worked out at 511 nM. In addition, the CC50 in data set [2] (Table 1, HepG2 2.2.15 cells) is over 2000 nM; in data set [3], over 2000 nM.

As for `CCCC(CCC)C(=O)Nc1nc(Cl)nc2c1ccn2[C@@H]1O[C@H](CO)[C@@H](O)[C@@H]1F` [Compound 12d, N-(2-chloro-7-((2R,3S,4R,5R)-3-fluoro-4-hydroxy-5-(hydroxymethyl)tetrahydrofuran-2-yl)-7H-pyrrolo[2,3-d]pyrimidin-4-yl)-2-propylpentanamide], in data set [1] (setting [7]), the pEC50 was 5.67. Besides, in data set [1] (setting [10]), the EC90 was over 10000 nM. In addition, the half-maximal cytotoxic concentration (CC50) in data set [2] (setting [11]) was over 10000 nM.

As for `CCCCCCCC/C=C\CCCCCCCC(=O)Nc1nc(Cl)nc2c1ccn2[C@@H]1O[C@H](CO)[C@@H](O)[C@@H]1F` [Compound 12b, N-(2-chloro-7-((2R,3S,4R,5R)-3-fluoro-4-hydroxy-5-(hydroxymethyl)tetrahydrofuran-2-yl)-7H-pyrrolo[2,3-d]-pyrimidin-4-yl)oleamide], the negative-log EC50 (pEC50) in data set [1] (setting [7]) was 6.89. Also, the 90% effect concentration (EC90) in data set [1] (setting [10]) is over 10000 nM. Besides, in data set [2] (setting [11]), the CC50 was over 10000 nM.

Broadly, the pEC50 is the negative decadic logarithm of the EC50, by convention in mol/L. As usually defined, the EC90 is the point of the concentration-response curve where the effect stands at 90%. What is called CC50 is the concentration at which the toxic effect on the cells reaches its halfway point. One may read the pIC50 as −log10 of the IC50, conventionally taken in molar units. A lower pIC50 goes with a large IC50.

The values above are taken from US20220251134A1, “2,4,7-SUBSTITUTED-7-DEAZA-2'-DEOXY-2'-FLUOROARABINOSYL NUCLEOSIDE AND NUCLEOTIDE PRO-DRUGS AND USES THEREOF” (Southern Research Institute, priority 2019, published 2022).
